Measurements: patent US10441601B2, “Method for treating schizophrenia” (St. Jude Children's Research Hospital, Inc., priority 2015, dated 2019)

Tested on: TC projections to the ACx
Assay: Whole-cell recordings of TC EPSCs in acute thalamocortical slices, bath application of antipsychotics / Drd2 antagonist
Type: cell-based, mouse
Method: Acute primary thalamocortical (TC) slices (400-μm thick) containing the left auditory cortex (ACx) and the left ventral part of the medial geniculate nuclei (MGv) of the thalamus were prepared as previously described^5. […] Primary TC slices were obtained from the left hemisphere by using a slicing angle of 15°.
Whole-cell recordings were obtained from cell bodies of layer (L) 3/4 thalamorecipient neurons in the ACx and thalamic-relay neurons in the MGv. Mice were chosen in a pseudorandom order, without the experimenter's prior knowledge of genotype or treatments. […] Voltage-clamp recordings were made using a Multiclamp 700B (Molecular Devices, Sunnyvale Calif.), digitized (10 kHz), and recorded using the pCLAMP 10.0 software (Molecular Devices, Sunnyvale Calif.). EPSCs were recorded at holding membrane potentials of −70 mV. In all experiments, membrane potentials were corrected for a liquid junction potential of −10 mV. TC excitatory postsynaptic currents (EPSCs) were evoked by current pulses (duration, 100 μs) delivered to the thalamic radiation via tungsten bipolar electrodes. Paired-pulse ratio (PPR) of TC and corticocortical (CC) EPSCs and the NMDAR/AMPAR ratio were measured as described previously^39. To ensure consistent access resistance of the recording electrode during long-term experiments, the peak amplitude of a brief (10-ms) hyperpolarizing test pulse (−5 mV) was monitored, which was given 250 ms after a stimulus. Access resistance (Ra) in recorded neurons was typically 10 to 25 MO.
Acute primary thalamocortical (TC) slices (400 µm thick) containing the auditory cortex (ACx) and the ventral part of the medial geniculate nuclei (MGv) of the thalamus were prepared as previously described^6. […] Primary TC slices were obtained from the left hemisphere by using a slicing angle of 15°.
Whole-cell recordings were obtained from cell bodies of layer (L) 3/4 thalamorecipient neurons in the ACx and thalamic-relay neurons in the MGv. […] Voltage-clamp recordings were made using a Multiclamp 700B, digitized (10 kHz), and recorded using the pCLAMP 10.0 software. EPSCs were recorded at holding membrane potentials of −70 mV. In all experiments, membrane potentials were corrected for a liquid junction potential of −10 mV. TC EPSCs were evoked by current pulses (duration, 100 […]s) delivered to the thalamic radiation via tungsten bipolar electrodes. To ensure consistent access resistance of the recording electrode during long-term experiments, the peak amplitude of a brief (10-ms) hyperpolarizing test pulse (−5 mV) was monitored given 250 ms after a stimulus. Access resistance (Ra) in recorded neurons was typically 10 to 25 MΩ.
In brief, the thalamic radiation of WT mice was stimulated to evoke TC EPSCs with a rise slope of approximately 100 pA/ms. The effect of the antipsychotic agent haloperidol on TC EPSC 30 minutes after its bath application was compared to the preapplication baseline TC EPSC (AH).

O=C(CCCN1CCC(O)(c2ccc(Cl)cc2)CC1)c1ccc(F)cc1 [haloperidol]
Effect on TC EPSCs, haloperidol alone (4-month-old miR-338+/− mice): increased TC EPSCs
Further effect on TC EPSCs after L-741,626 (4-month-old miR-338+/− mice, haloperidol applied on top of L-741,626 20 nM): not further elevated
Sensitivity of TC EPSCs to haloperidol (Df(16)1/+ mice 2 months or younger): not sensitive to haloperidol
Sensitivity of TC projections to haloperidol (Df(16)1/+ mice, age dependence, haloperidol 1 μM): became sensitive to haloperidol (1 µM) only at 3 months of age
Sensitivity of TC projections to haloperidol (Dgcr8+/− mice older than 3 months): sensitive to haloperidol at older than 3 months of age
Sensitivity of TC projections to haloperidol (WT mice, 1.5 to 7 months): not haloperidol-sensitive at any age
Sensitivity of TC projections to haloperidol, age dependence (miR-338+/− mice, 1.5 to 4 months): sensitive to haloperidol in an age-independent manner
Effect on deficit of TC EPSCs (smaller TC EPSCs vs WT) (older Df(16)1/+ mice, haloperidol 1 μM, 30 minutes after bath application): rescued that deficit
Sensitivity of TC projections to haloperidol (younger Dgcr8+/− mice): not sensitive to haloperidol

OC1(c2ccc(Cl)cc2)CCN(Cc2c[nH]c3ccccc23)CC1 [L-741,626]
Effect on TC EPSCs (4-month-old miR-338+/− mice, L-741,626 20 nM): substantially increased
